pEC50: −log10 of the molar value.
What was measured:
human topoisomerase II = biological target: T1, human topoisomerase II (Homo sapiens, UniProt P11388); experiment: Mammalian Topoisomerase II Inhibition Assay (DNA-topo II complex formation); assay type: biochemical; settings: EC50 = concentration with activity equal to EC50 of reference mAMSA; read-out: TopoII Inh. EC50
T1 construct: Topo II was purified from late log phase suspension cultures of HeLa WIS; endogenous in cells; host or cells: HeLa WIS suspension cultures, late log phase (enzyme purified from the cells)
T1 sequence (P11388 whole entry): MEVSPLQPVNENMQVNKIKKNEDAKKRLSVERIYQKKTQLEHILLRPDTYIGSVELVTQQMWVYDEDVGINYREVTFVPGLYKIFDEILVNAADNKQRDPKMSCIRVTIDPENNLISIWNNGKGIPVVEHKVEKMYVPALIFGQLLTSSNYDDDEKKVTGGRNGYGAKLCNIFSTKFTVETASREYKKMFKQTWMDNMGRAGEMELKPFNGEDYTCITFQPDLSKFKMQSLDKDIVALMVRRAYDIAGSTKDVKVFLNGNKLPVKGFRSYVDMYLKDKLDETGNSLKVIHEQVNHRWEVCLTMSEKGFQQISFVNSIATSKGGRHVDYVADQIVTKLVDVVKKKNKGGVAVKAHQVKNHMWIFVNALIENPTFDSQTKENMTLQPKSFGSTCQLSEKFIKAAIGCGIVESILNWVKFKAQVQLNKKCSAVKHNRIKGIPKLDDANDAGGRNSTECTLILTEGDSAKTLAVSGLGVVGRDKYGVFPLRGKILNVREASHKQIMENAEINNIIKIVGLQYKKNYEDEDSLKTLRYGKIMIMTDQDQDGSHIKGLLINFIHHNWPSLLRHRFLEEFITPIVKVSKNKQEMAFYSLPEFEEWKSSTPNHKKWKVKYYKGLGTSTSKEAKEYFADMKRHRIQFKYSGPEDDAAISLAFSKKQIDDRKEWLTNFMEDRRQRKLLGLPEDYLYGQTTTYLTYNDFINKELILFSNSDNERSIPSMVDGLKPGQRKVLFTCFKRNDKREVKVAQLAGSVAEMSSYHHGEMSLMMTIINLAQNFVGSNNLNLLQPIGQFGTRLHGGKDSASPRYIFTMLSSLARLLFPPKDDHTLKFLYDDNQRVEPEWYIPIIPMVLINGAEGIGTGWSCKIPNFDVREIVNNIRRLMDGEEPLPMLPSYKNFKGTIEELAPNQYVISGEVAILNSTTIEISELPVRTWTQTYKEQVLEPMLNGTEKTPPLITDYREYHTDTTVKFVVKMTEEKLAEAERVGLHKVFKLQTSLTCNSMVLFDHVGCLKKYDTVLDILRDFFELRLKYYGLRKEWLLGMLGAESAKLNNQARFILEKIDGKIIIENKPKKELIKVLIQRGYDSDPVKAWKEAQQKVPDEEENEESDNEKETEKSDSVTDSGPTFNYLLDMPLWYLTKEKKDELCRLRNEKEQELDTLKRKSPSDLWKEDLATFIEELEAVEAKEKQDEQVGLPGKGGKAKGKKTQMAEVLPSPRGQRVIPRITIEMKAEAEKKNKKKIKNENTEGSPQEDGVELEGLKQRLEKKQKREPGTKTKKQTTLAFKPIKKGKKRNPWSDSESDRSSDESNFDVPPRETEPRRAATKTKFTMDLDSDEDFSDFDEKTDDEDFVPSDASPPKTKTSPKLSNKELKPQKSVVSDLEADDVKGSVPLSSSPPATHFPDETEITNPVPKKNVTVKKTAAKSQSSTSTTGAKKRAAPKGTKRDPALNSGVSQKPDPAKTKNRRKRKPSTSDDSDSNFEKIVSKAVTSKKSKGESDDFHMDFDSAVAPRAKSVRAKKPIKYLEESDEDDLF
Experimental: Mammalian Topoisomerase II Inhibition Assay Procedure
The assay quantitates the amount of topo II covalently complexed by DNA at equilibrium during a topo II reaction. This assay determines the potential of a compound to stabilize this complex, which potential is closely related to the cytotoxicity of the compound.
Assays (in duplicate) were assembled at 4° C.
4 ng 3' end labeled (^32 P) pBR322 DNA (10^7 DMP/μg)
The assay mix including the test compound was incubated for 20 minutes at 37° C. The reaction was terminated at 37° C. by the addition of 3 μl 10% SDS followed by the addition of 266 μl 10 mM Tris-Cl pH 7.5, 20 μg/ml BSA, 20 μg/ml calf thymus DNA, 1% SDS.
A SDS/protein precipitate was formed by the addition of 28 μl 2.5M KCl followed by chilling on ice for a minimum of 10 minutes. The precipitate was collected and washed with a Brandell cell harvester on a GFB glass fiber filter membrane as follows. The contents of the assay tube were drawn up into the harvester. The tube was then rinsed 7X with 10 mM Tris-Cl pH 7.5, 1 mM EDTA and 100 mM KCl. […] After drying, CPM was determined by liquid scintillation counting with 5 ml Biofluor (NEN Research Products) or Readisafe (Beckman Instruments Inc.) cocktail.
This solution then was diluted 1/5 into water and serially thereafter in either 0.02N sodium hydroxide or 0.04N hydrogen chloride, respectively. The stock solution and serial dilution of the test compound was stored at -20° C. prior to testing.
Screening of test compound--As an initial screen, the test compound was tested at a final concentration of 2, 20 and 200 μg/ml. The compound was then retested at a range of concentrations (usually 2-3X steps) bridging their approximate EC50 's, as estimated by the prescreen.
Controls--A solvent control which indicates the base level of topo II-DNA complex formed in the absence of the test compound was included in each test. A control, in which topo II was omitted, was included for each test compound at the highest drug concentration tested.
Reference Agent--A dose response curve with mAMSA at 0.01, 0.08, 0.16, 0.32, 1.0 and 10 μg/ml was included in each test.
The maximal DNA-topo II complex formed is taken as that equal to that formed at the nearly saturating dose of mAMSA (10 μg/ml).

[1] = In vivo antitumor assay, Mam16C(sc); set-up: species or system mouse; settings: mouse, in vivo, drug route iv, qd 1, bid 2,3
Description: (§1) Mice: Inbred: C3H/He and NCR-nu; and Hybrids: B6D2Fl (C57BL/6 females X DBA/2 males, CD2Fl (Balb/c females X DBS/2 males) and B6x C3fl (C57BL/6 x C3H) were bred at Wayne State University from strained obtained from the Frederick Cancer Research Facility, Frederick, Md. or purchased from commercial suppliers.
(§2) Tumors: Murine Tumor: P388 and an adriamycin-resistant (ADR) subline P388/ADR leukemia and the following transplantable solid tumors of mice were used for in Vivo testing: B16 melanoma (B16), pancreatic ductal adenocarcinoma No. 03 (Panc 03), colon adenocarcinoma No. 38 (colo 38), mammary ductal adenocarcinoma No. 16/C (Mam16) and an adriamycin-resistantsubline Mam16C/ADR. Human tumor: A single human tumor, mammary carcinoma MX-1 (MX1) was used for in vivo testing. All tumors are in the Developmental Therapeutics Program frozen tumor respository, maintained by the Biological Testing Branch, Frederick Md. Each has a detailed description, code identification number, and list of references at the National Tumor Repository. […]
(§3) Quantitative end points used assess antitumor activity included % Increased Life Span (% ILS), Tumor Cell Kill (Log10 kill), and Tumor Growth Inhibition (T/C). […]
(§4) The log10 cell kill was calculated from the following formula: [formula] where T-C is the tumor difference in the median day of death between the treated (T) and the control (C) groups and Td is the tumor doubling time (in days), the latter estimated from the best fit straight line from a log-linear growth plot of the control-group tumors in exponential growth. […]
(§5) Tumors were measured with a caliper once or twice weekly (as needed) until either tumors exceeded 1600 mg or cure was assured. […] When the control group tumors reached approximately 750-1500 mg in size (median of group), the median tumor weight of each group was determined (including zeros). […] The % T/C was calculated from the following formula for solid murine tumor models: [formula] where T and C are median tumor weights of the treatment and control groups, respectively. […]

[2] = tested on: mammary ductal adenocarcinoma No. 16/C (Mam16); experiment: In vivo antitumor assay, Mam16C(sc); set-up: species or system mouse; settings: drug route iv
Description: as §1, §2, §3, §4, §5

SMILES	pEC50 (human topoisomerase II)	MTD [1]	T/C % ([2]; qd 1, bid 2,3)	LOG KILL ([2]; qd 1, bid 2,3, log10 cell kill)
Cc1cc(-c2c(F)cc3c(=O)c(Cc4c(O)cccc4O)cn(C4CC4)c3c2F)cc(C)n1 [Example 26, 1-Cyclopropyl-6,8-difluoro-7-[2,6-dimethyl-4-pyridinyl]-3-[2,6-dihydroxyphenylmethyl]-1,4-dihydroquinoline-4-one]	7.02	15 mg/kg	28%	0.90
Cc1cc(-c2c(F)cc3c(=O)c(Cc4ccccc4O)cn(C4CC4)c3c2F)cc(C)n1 [Example 30]	6.48			

— US5330992A, “1-cyclopropyl-4-pyridyl-quinolinones” (priority 1992, dated 1994)
